This is an account of results in EP0888322B1, “ELECTROPHILIC KETONES FOR THE TREATMENT OF HERPESVIRUS INFECTIONS” (G.D. SEARLE & CO., priority 1996, dated 1997).

In series [1] the target is T1, Bovine pancreas α-chymotrypsin (Bos taurus, UniProt P00766, DEL14-15/DEL147-148).
T1 construct: Bovine pancreas α-chymotrypsin (type II, Sigma); purchased Sigma type II; host or cells: bovine pancreas
Kind of series: Chymotrypsin assay. Format: biochemical. The following applies: @ 33 µM; read-out: Chymotrypsin % @ Conc. The procedure: The chymotrypsin assay was modified from the method of Delmar et al [Anal. Biochem., 99, 316-320 (1979)]. Bovine pancreas α-chymotrypsin (type II, Sigma) was dissolved in 0.001 N HCl at 1 mg/ml and further diluted 1/600 in assay buffer (0.1 M Tris, pH 7.8, containing 0.1 M CaCl2) before use. 20 µl of test compound in DMSO (or DMSO alone), 100 µl of assay buffer and 30 µl of enzyme were added to 96 well plates, mixed and pre-incubated for 30 minutes at ambient temperature. Reaction was initiated by addition of 50 µl of 0.2 mM N-succinyl-Ala-Ala-Pro-Phe-p-nitroanilide (Sigma; 2 mM in DMSO diluted 1/10 in assay buffer before use). The increase in absorbance at 405 nm was monitored for 10 minutes with a Biotek EL340 plate reader.

In series [2] the target is T2, Human leukocyte elastase (HLE) (Homo sapiens, UniProt P08246).
T2 construct: gift of R. Senior, Washington University
T2 sequence (P08246 30-267): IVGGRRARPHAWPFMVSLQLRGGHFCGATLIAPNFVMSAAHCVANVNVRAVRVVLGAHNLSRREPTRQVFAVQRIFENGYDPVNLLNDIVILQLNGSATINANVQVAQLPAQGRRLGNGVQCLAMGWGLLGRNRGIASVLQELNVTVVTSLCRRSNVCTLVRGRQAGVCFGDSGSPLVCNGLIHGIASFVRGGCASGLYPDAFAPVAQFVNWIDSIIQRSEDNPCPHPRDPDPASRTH
Kind of series: Human leukocyte elastase assay. Format: biochemical. The following applies: @ 24 µM; read-out: HLE % @ Conc.
Description: Human leukocyte elastase (HLE) (gift of R. Senior, Washington University) was dissolved in saline at 1 mg/ml and further diluted 1/20 in assay buffer (0.2 M Tris, pH 8.0) before use. 10 µl of test compound in DMSO (or DMSO alone), 100 µl of assay buffer and 50 µl of enzyme were added to 96 well plates, mixed and pre-incubated for 30 minutes at ambient temperature. Reaction was initiated by addition of 40 µl of 2.5 mM methoxysuccinyl-Ala-Ala-Pro-Val-p-nitroanilide (Sigma; 25 mM in DMSO diluted 1/10 in assay buffer before use). The increase in absorbance at 405 nm was monitored for 10 minutes with a Biotek EL340 plate reader.

The next series concerns HCMV. Kind of series: HCMV antiviral assay, format (RC256 or ELISA) not given. The following applies: Human betaherpesvirus 5, read-out: Antiviral Activity EC50. Format: cell-based. The text has this: (§1) These complimentary assays tested the ability of a compound to inhibit the production of new virus and the toxicity of the compound to the host cells. It was important that both assays be performed simultaneously in order to compare the results directly since, toxicity may indirectly reduce viral yield.
Viral yield was estimated by measuring the amount of a viral antigen produced 4 days post infection with a monoclonal antibody to an abundant "immediate early" viral protein. An enzyme-linked (horseradish peroxidase) secondary antibody specific to the primary (mouse) antibody was used to measure the amount of viral antigen. Test compounds were diluted to 2-times the desired final concentration in DMEM + 5% FBS. One hundred microliters of this solution was placed in each well of a 96-well plate. This was performed once for the antiviral 96-well plate and again for a cytotoxicity plate. […]
The following was performed on the antiviral plate only. […] The reaction was stopped by adding 100 µL of phosphoric acid and the OD at 450 nm recorded. […] Antiviral activity was calculated by comparing the amount of viral antigen produced in drug treated wells with that produced in wells absent of drug. […]
In this assay, HCMV replication was monitored by the production of E. coli beta-galactosidase by the engineered virus RC256 [Spaete and Mocarski, Proc.Nat.Acad.Sci., 84, 7213 (1987)]. […]
Background: ELISA stands for enzyme-linked immunosorbent assay.

The nature of a further series: in vitro. Format: cell-based. The following applies: human, human foreskin fibroblasts.
Description: as §1
Viral yield was estimated by measuring the amount of a viral antigen produced 4 days post infection with a monoclonal antibody to an abundant "immediate early" viral protein. An enzyme-linked (horseradish peroxidase) secondary antibody specific to the primary (mouse) antibody was used to measure the amount of viral antigen. Test compounds were diluted to 2-times the desired final concentration in DMEM + 5% FBS. One hundred microliters of this solution was placed in each well of a 96-well plate. This was performed once for the antiviral 96-well plate and again for a cytotoxicity plate. Two controls were also included for both plates; a no drug control and a no virus control. Ganciclovir was routinely tested in antiviral and cytotoxicity plates as a reference standard because it has known antiviral activity for HCMV. All cells were prepared by harvesting human foreskin fibroblasts, with trypsin and re-suspending at a concentration of 5 X 10^5 cells per ml in DMEM. Infected cells were prepared by infecting these with HCMV (strain AD169) at a multiplicity of infection = 0.2. One hundred microliters of uninfected cells (5 x 10^4 cells) were added to the appropriate wells of the cytotoxicity plate. In a similar manner 100 µl of infected cells (5 x 10^4 cells) were added to the appropriate wells of the antiviral plate. Additionally, uninfected cells not treated with test compound were included as controls on the antiviral plate. Plates were incubated for 96 hours at 37°C in 5% CO2 atmosphere and processed to measure the amount of viral antigen and toxicity.
In this assay, HCMV replication was monitored by the production of E. coli beta-galactosidase by the engineered virus RC256 [Spaete and Mocarski, Proc.Nat.Acad.Sci., 84, 7213 (1987)]. One antiviral assay and one cytotoxicity assay were done for each compound. Dilutions of test compounds and infection of cells in a 96-well plate was essentially as described above for the HCMV ELISA except for the following. Human foreskin fibroblasts at 3.5 x 10^5 cells per milliliter were infected in solution with RC256 at 0.05 pfu per cell. Compounds and cells were incubated 3 days and processed at […]. For the beta galactosidase detection, the supernatant was aspirated from the antiviral assay plates and 50 µl Reporter Lysis Buffer (Promega, diluted to 1X with water) was added per well. The plates were incubated at room temperature at least 30 minutes and plates were frozen at -20 °C at this point for later processing. 50 µl of 2X assay buffer [120 mM Na2HPO4, 80 mM NaH2PO4, 2 mM MgCl2, 100 mM 2-mercaptoethanol, 4.4 mM ONPG (Sigma)] was added per well and incubated at room temperature 30 to 45 minutes. The reaction was stopped with 100 µl 1M CAPS buffer, pH = 11.0, per well and the optical density was read at 410 nanometers. Ganciclovir was used as a positive control and the EC50 was determined as described above for the HCMV ELISA. Results (EC50/TD50) are included in Table 1.

Usually EC50 stands for the concentration at which the effect is half-maximal. In general, CC50 refers to the concentration giving 50% cytotoxicity. Turning to `O=C(Nc1ccc(I)cc1C(=O)C(F)(F)F)c1ccco1` [Example 13, N-[4-iodo-2-(2,2,2-trifluoro-1-oxoethyl)phenyl]furan-2-carboxamide], in series [1], the inhibition at 33 µM is 39%. The inhibition at 24 µM in series [2] was 50%. Further, the EC50 with HCMV worked out at 28 µM. In the series “in vitro”, the CC50 is > 100 µM.
